Measured values: US9662310B2, “Cyclopropanecarboxylic acid derivative” (DAIICHI SANKYO COMPANY, LIMITED, priority 2010, dated 2017)
Structures can show the parent of a compound that is named as a salt.

Target: TAFIa (Homo sapiens (Human), UniProt Q96IY4)
Experiment: Determination of TAFIa enzyme inhibitory activity (FAAK substrate degradation)
Format: biochemical
Conditions: TAFI activated with human thrombin / rabbit lung thrombomodulin; substrate FAAK, absorbance at 330 nm; read-out: TAFIa IC50
Protocol: Determination of TAFIa Enzyme Inhibitory Activity
HEPES buffered saline (20 mM HEPES, 150 mM NaCl, pH 7.4; hereinafter, referred to as HBS) was used in the preparation of a reaction solution. To 12 μL of a 250 μg/mL TAFI solution, 30 μL of an HBS solution containing 4 U/mL human thrombin, 12 U/mL rabbit lung thrombomodulin, and 12 mM CaCl2 was added, and the mixture was gently stirred. Then, TAFI was activated at room temperature. Ten minutes later, thrombin was neutralized by the addition of 10 μL of 100 μM PPACK (thrombin inhibitor) to terminate the activation of TAFI. The formed TAFIa was stored in ice and diluted immediately before use in determination with 2050 μL of an HBS solution containing BSA (bovine serum albumin) adjusted to 0.1% in terms of the final concentration.
(2) Determination of TAFIa Inhibitory Activity
A test substance was dissolved in HBS to prepare a 10-fold dilution series of evaluation concentrations. 80 μL of the TAFIa solution and 10 μL of the test substance were added to each well of a 96-well plate and mixed by shaking for 10 minutes. 10 μL of furylacryloyl-alanyl-lysine (FAAK) adjusted to 5 mg/mL was added to each well, and the change in the absorbance of this mixed solution at 330 nm was read for 30 minutes to determine the degradation rate of the substrate.
(3) Calculation of Inhibitory Activity IC50
The degradation rate of the substrate in each well was applied to a standard curve prepared using the dilution series of the TAFIa solution to calculate TAFIa activity.

TAFIa, sequence (Q96IY4 115-423): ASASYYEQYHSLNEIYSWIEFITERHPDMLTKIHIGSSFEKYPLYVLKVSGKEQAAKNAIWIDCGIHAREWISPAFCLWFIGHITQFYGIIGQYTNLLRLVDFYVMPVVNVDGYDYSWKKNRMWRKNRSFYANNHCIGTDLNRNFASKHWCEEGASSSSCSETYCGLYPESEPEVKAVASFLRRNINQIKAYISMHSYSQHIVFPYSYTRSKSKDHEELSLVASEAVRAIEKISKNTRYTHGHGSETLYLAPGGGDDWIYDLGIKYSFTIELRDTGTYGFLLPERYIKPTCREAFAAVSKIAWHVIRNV

Compound	IC50 [µM]
CCCn1cnc([C@@]2(C(=O)O)C[C@@H]2CCCN)c1 (relative stereo) [Example 3, (1R*,2S*)-2-(3-Aminopropyl)-1-(1-propyl-1H-imidazol-4-yl)cyclopropanecarboxylic acid]	0.097
NCCC[C@H]1C[C@]1(C(=O)O)c1cn(-c2ccccc2)cn1 (relative stereo) [Example 6, (1R*,2S*)-2-(3-Aminopropyl)-1-(1-phenyl-1H-imidazol-4-yl)cyclopropanecarboxylic acid]	0.027
Cc1ccc(-n2cnc([C@@]3(C(=O)O)C[C@@H]3CCCN)c2)cc1 (relative stereo) [Example 7, (1R*,2S*)-2-(3-Aminopropyl)-1-[1-(4-methylphenyl)-1H-imidazol-4-yl]cyclopropanecarboxylic acid]	0.016
Cc1ccccc1-n1cnc([C@@]2(C(=O)O)C[C@@H]2CCCN)c1 (relative stereo) [Example 9, (1R*,2S*)-2-(3-Aminopropyl)-1-[1-(2-methylphenyl)-1H-imidazol-4-yl]cyclopropanecarboxylic acid]	> 0.3
Cc1ccc(-n2cnc([C@@]3(C(=O)O)C[C@@H]3CCCN)c2)cc1C (relative stereo) [Example 10, (1R*,2S*)-2-(3-Aminopropyl)-1-[1-(3,4-dimethylphenyl)-1H-imidazol-4-yl]cyclopropanecarboxylic acid]	0.042
CCc1ccc(-n2cnc([C@@]3(C(=O)O)C[C@@H]3CCCN)c2)cc1 (relative stereo) [Example 11, (1R*,2S*)-2-(3-Aminopropyl)-1-[1-(4-ethylphenyl)-1H-imidazol-4-yl]cyclopropanecarboxylic acid]	0.031
NCCC[C@H]1C[C@]1(C(=O)O)c1cn(-c2ccc(C(F)(F)F)cc2)cn1 (relative stereo) [Example 13, (1R*,2S*)-2-(3-Aminopropyl)-1-{1-[4-(trifluoromethyl)phenyl]-1H-imidazol-4-yl}cyclopropanecarboxylic acid]	0.14
NCCC[C@H]1C[C@]1(C(=O)O)c1cn(-c2ccc(F)c(F)c2)cn1 (relative stereo) [Example 17, (1R*,2S*)-2-(3-Aminopropyl)-1-[1-(3,4-difluorophenyl)-1H-imidazol-4-yl]cyclopropanecarboxylic acid]	0.061
NCCC[C@H]1C[C@]1(C(=O)O)c1cn(-c2ccc(Cl)cc2)cn1 (relative stereo) [Example 18, (1R*,2S*)-2-(3-Aminopropyl)-1-[1-(4-chlorophenyl)-1H-imidazol-4-yl]cyclopropanecarboxylic acid]	0.025
NCCC[C@H]1C[C@]1(C(=O)O)c1cn(-c2ccc3ccccc3c2)cn1 (relative stereo) [Example 21, (1R*,2S*)-2-(3-Aminopropyl)-1-[1-(2-naphthyl)-1H-imidazol-4-yl]cyclopropanecarboxylic acid]	0.027
NCCC[C@H]1C[C@]1(C(=O)O)c1cn(-c2ccncc2)cn1 (relative stereo) [Example 23, (1R*,2S*)-2-(3-Aminopropyl)-1-(1-pyridin-4-yl-1H-imidazol-4-yl)cyclopropanecarboxylic acid hydrochloride]	0.17
NCCC[C@H]1C[C@]1(C(=O)O)c1cn(-c2cccnc2)cn1 (relative stereo) [Example 24, (1R*,2S*)-2-(3-Aminopropyl)-1-(1-pyridin-3-yl-1H-imidazol-4-yl)cyclopropanecarboxylic acid]	0.098
NCCC[C@H]1C[C@]1(C(=O)O)c1cn(-c2ccccn2)cn1 (relative stereo) [Example 25, (1R*,2S*)-2-(3-Aminopropyl)-1-(1-pyridin-2-yl-1H-imidazol-4-yl)cyclopropanecarboxylic acid]	0.029
CC(CN)C[C@H]1C[C@]1(C(=O)O)c1cn(-c2ccccc2)cn1 (relative stereo) [Example 32, (1R*,2S*)-2-(3-Amino-2-methylpropyl)-1-(1-phenyl-1H-imidazol-4-yl)cyclopropanecarboxylic acid]	0.035
CC(CCN)[C@H]1C[C@]1(C(=O)O)c1cn(-c2ccccc2)cn1 (relative stereo) [Example 36, (1R*,2R*)-2-(3-Amino-1-methylpropyl)-1-(1-phenyl-1H-imidazol-4-yl)cyclopropanecarboxylic acid]	0.036
NCCC[C@H]1C[C@]1(C(=O)O)c1cn(-c2cccs2)cn1 (relative stereo) [Example 37, (1R*,2S*)-2-(3-Aminopropyl)-1-[1-(2-thienyl)-1H-imidazol-4-yl]cyclopropanecarboxylic acid dihydrochloride]	0.1
NCCC[C@H]1C[C@]1(C(=O)O)c1cn(-c2nccs2)cn1 (relative stereo) [Example 38, (1R*,2S*)-2-(3-Aminopropyl)-1-[1-(1,3-thiazol-2-yl)-1H-imidazol-4-yl]cyclopropanecarboxylic acid]	0.058

Further molecules by falling IC50, results first:

IC50 [µM]	Compound
10	CCOC(=O)[C@]1(c2cn(-c3ccc(C)cc3)cn2)C[C@@H]1CCCN (relative stereo) [Example 26, Ethyl (1R*,2S*)-2-(3-aminopropyl)-1-[1-(4-methylphenyl)-1H-imidazol-4-yl]cyclopropanecarboxylate hydrochloride]
0.93	CC(CN)C[C@H]1C[C@]1(C(=O)O)c1cn(-c2ccc(S(C)(=O)=O)cc2)cn1 (relative stereo) [Example 34, (1R*,2S*)-2-(3-Amino-2-methylpropyl)-1-{1-[4-(methylsulfonyl)phenyl]-1H-imidazol-4-yl}cyclopropanecarboxylic acid]
0.34	NCCC[C@H]1C[C@]1(C(=O)O)c1cn(-c2ccc(O)nc2)cn1 (relative stereo) [Example 35, (1R*,2S*)-2-(3-Aminopropyl)-1-[1-(6-hydroxypyridin-3-yl)-1H-imidazol-4-yl]cyclopropanecarboxylic acid]
0.14	NCCC[C@H]1C[C@]1(C(=O)O)c1cn(-c2ccccc2Cl)cn1 (relative stereo) [Example 20, (1R*,2S*)-2-(3-Aminopropyl)-1-[1-(2-chlorophenyl)-1H-imidazol-4-yl]cyclopropanecarboxylic acid hydrochloride]
0.099	NCCC[C@H]1C[C@]1(C(=O)O)c1cn(/C=C/c2ccccc2)cn1 (relative stereo) [Example 14, (1R*,2S*)-2-(3-Aminopropyl)-1-{1-[(E)-2-phenylvinyl]-1H-imidazol-4-yl}cyclopropanecarboxylic acid]
0.07	NCCC[C@H]1C[C@]1(C(=O)O)c1cn(-c2cccc(Cl)c2)cn1 (relative stereo) [Example 19, (1R*,2S*)-2-(3-Aminopropyl)-1-[1-(3-chlorophenyl)-1H-imidazol-4-yl]cyclopropanecarboxylic acid]
0.052	NCCC[C@H]1C[C@]1(C(=O)O)c1cn(-c2ccc(Oc3ccccc3)cc2)cn1 (relative stereo) [Example 16, (1R*,2S*)-2-(3-Aminopropyl)-1-[1-(4-phenoxyphenyl)-1H-imidazol-4-yl]cyclopropanecarboxylic acid]
0.04	NCCC[C@H]1C[C@]1(C(=O)O)c1cn(-c2cccc(F)c2)cn1 (relative stereo) [Example 22, (1R*,2S*)-2-(3-Aminopropyl)-1-[1-(3-fluorophenyl)-1H-imidazol-4-yl]cyclopropanecarboxylic acid]
0.039	Cc1ccc(-n2cnc([C@@]3(C(=O)O)C[C@@H]3CC(C)CN)c2)cc1 (relative stereo) [Example 33, (1R*,2S*)-2-(3-Amino-2-methylpropyl)-1-[1-(4-methylphenyl)-1H-imidazol-4-yl]cyclopropanecarboxylic acid]
0.037	Cc1cccc(-n2cnc([C@@]3(C(=O)O)C[C@@H]3CCCN)c2)c1 (relative stereo) [Example 8, (1R*,2S*)-2-(3-Aminopropyl)-1-[1-(3-methylphenyl)-1H-imidazol-4-yl]cyclopropanecarboxylic acid]
0.036	COc1ccc(-n2cnc([C@@]3(C(=O)O)C[C@@H]3CCCN)c2)cc1 (relative stereo) [Example 12, (1R*,2S*)-2-(3-Aminopropyl)-1-[1-(4-methoxyphenyl)-1H-imidazol-4-yl]cyclopropanecarboxylic acid]
0.029	NCCC[C@H]1C[C@]1(C(=O)O)c1cn(C2CCCCC2)cn1 (relative stereo) [Example 4, (1R*,2S*)-2-(3-Aminopropyl)-1-(1-cyclohexyl-1H-imidazol-4-yl)cyclopropanecarboxylic acid]
0.021	NCCC[C@H]1C[C@]1(C(=O)O)c1cn(-c2ccc(F)cc2)cn1 (relative stereo) [Example 15, (1R*,2S*)-2-(3-Aminopropyl)-1-[1-(4-fluorophenyl)-1H-imidazol-4-yl]cyclopropanecarboxylic acid]
0.014	C[C@H]1CC[C@H](n2cnc([C@@]3(C(=O)O)C[C@@H]3CCCN)c2)CC1 (relative stereo) [Example 5, (1R*,2S*)-2-(3-Aminopropyl)-1-[1-(trans-4-methylcyclohexyl)-1H-imidazol-4-yl]cyclopropanecarboxylic acid]
